In patent US7563782B2, “T-type calcium channel blocker” (Nissan Chemical Industries, Ltd., priority 2003, dated 2009):

How the values were obtained:
T-type Ca channel (α1G) = molecular target: T1, T-type Ca channel (α1G) (Homo sapiens, UniProt O43497); assay: Pharmacological Test Example 1: whole cell patch clamp, Ca current inhibition in BHK cells expressing T-type Ca channel; format: cell-based
T1 construct: expressed in transfected cells; host or cells: BHK (baby hamster kidney) cells
Method: (§1) Pharmacological Test Example 1 (effect on L-type and T-type Ca (calcium) channel expressed in mammalian cells (BHK cells))
(§2) In this test, an electrophysiological evaluation was carried out by use of BHK (baby hamster kidney) cells in which L-type Ca channel or T-type Ca channel (α1G) was expressed according to the method of Wakamori M et al. (Wakamori M et al.: J Biol Chem 273, 34857-34867,1998) based on the whole cell patch clamp method. Each Ca-ion current was measured through a patch clamp amplifier as an inward current when depolarization pulse (10 mV in L-type Ca channel, −20 mV in T-type Ca channel) was applied to cells maintained at a membrane potential of −80 mV. Optically active R-form or S-form of efonidipine was dissolved in extracellular solution and applied with perfusion. At 5 minutes after the application, any variation in Ca-ion current was measured. The results are shown in Ca current inhibition (%) of the compound of the present invention to Ca current (100%) in vehicle control.

L-type Ca channel = assay: Pharmacological Test Example 1: whole cell patch clamp, Ca current inhibition in BHK cells expressing L-type Ca channel; format: cell-based; conditions: for Inhibition (%): L-type Ca channel, BHK cells, 5 minutes after application, mean ± SE
Method: as §1, §2

[1] = T-type Ca channel, concentration 0.1 μM, BHK cells, 5 minutes after application, mean ± SE, 0.1 µM

T1 sequence (O43497 whole entry): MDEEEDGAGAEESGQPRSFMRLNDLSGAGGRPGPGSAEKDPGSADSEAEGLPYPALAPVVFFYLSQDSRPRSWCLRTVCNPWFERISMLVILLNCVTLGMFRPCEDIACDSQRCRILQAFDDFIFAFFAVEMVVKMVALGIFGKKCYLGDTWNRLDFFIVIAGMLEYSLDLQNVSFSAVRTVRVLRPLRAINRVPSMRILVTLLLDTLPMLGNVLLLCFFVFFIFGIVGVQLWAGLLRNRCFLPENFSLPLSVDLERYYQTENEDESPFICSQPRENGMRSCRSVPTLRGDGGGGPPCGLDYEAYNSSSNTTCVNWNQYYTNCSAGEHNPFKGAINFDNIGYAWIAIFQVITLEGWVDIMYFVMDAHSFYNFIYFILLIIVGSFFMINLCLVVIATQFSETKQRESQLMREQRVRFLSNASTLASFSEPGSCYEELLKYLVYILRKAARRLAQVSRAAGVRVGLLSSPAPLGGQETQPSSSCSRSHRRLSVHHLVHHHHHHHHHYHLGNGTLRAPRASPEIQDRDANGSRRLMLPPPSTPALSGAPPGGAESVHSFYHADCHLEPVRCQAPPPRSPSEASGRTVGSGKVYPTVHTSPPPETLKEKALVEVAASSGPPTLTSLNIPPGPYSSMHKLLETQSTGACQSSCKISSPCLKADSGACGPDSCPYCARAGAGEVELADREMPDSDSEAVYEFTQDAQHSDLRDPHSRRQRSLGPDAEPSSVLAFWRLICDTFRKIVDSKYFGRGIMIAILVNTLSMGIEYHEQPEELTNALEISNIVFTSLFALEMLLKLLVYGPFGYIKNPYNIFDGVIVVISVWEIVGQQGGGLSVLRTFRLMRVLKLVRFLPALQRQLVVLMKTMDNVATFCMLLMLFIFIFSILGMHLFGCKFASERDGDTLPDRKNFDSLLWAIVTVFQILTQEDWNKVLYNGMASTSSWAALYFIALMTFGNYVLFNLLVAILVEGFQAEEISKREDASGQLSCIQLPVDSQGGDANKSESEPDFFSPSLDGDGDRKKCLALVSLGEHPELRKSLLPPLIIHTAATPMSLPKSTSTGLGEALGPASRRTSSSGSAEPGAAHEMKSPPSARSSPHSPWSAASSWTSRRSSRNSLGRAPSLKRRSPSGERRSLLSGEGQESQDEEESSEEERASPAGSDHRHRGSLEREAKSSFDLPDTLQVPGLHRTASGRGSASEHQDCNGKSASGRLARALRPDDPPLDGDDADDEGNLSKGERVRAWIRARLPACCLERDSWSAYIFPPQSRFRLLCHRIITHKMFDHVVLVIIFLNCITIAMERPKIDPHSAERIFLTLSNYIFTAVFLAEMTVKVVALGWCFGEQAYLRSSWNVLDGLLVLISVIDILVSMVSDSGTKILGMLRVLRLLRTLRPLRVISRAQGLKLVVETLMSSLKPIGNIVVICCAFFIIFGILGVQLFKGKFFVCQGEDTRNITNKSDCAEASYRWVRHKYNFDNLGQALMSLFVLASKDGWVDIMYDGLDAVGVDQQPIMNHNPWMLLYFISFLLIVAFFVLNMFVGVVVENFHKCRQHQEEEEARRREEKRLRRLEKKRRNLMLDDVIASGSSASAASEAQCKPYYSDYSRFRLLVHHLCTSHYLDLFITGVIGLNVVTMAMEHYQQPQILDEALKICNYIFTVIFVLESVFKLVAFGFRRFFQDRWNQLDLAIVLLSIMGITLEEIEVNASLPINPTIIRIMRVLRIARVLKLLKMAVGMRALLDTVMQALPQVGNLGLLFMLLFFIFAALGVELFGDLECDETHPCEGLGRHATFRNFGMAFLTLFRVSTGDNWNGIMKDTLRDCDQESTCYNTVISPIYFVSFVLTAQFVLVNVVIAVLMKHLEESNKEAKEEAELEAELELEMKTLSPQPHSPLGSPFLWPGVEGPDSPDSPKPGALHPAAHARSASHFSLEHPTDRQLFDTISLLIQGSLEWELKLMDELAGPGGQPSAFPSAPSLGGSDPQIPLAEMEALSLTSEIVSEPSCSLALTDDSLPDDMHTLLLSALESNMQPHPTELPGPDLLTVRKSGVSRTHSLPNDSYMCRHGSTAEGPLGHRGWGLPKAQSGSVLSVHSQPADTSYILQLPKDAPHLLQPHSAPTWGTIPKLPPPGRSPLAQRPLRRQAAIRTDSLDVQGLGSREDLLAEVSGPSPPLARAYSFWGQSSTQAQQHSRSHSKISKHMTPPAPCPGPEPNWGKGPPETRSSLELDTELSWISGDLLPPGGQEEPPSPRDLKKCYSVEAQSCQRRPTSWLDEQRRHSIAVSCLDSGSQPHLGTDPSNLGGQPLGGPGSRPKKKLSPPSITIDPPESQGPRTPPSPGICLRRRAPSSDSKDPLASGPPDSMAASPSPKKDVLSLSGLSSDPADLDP

inhibition at 1 µM (T-type Ca channel (α1G); BHK, T-type Ca channel, concentration 1 μM, BHK cells, 5 minutes after application, mean ± SE) [%]	inhibition at 10 µM (T-type Ca channel (α1G); BHK, T-type Ca channel, concentration 10 μM, BHK cells, 5 minutes after application, mean ± SE) [%]	Inhibition (%) (T-type Ca channel (α1G); [1])	selectivity for T-type Ca channel (T-type Ca channel (α1G); T-type versus L-type Ca channel)	inhibition for T-type Ca channel (in words) (T-type Ca channel (α1G); concentration of 0.1 μM or more)	Inhibition (%) (T-type Ca channel (α1G); T-type Ca channel, concentration 1 μM, BHK cells, 5 minutes after application, mean ± SE, 1 µM)	Inhibition (%) (T-type Ca channel (α1G); T-type Ca channel, concentration 10 μM, BHK cells, 5 minutes after application, mean ± SE, 10 µM)	SMILES	Inhibition (%) (L-type Ca channel; concentration 10 μM)	inhibition for L-type Ca channel (in words) (L-type Ca channel; concentration of 10 μM)	Inhibition (%) (L-type Ca channel; concentration 1 μM)
41.7 ± 5.3	72.7 ± 5.6	19.4 ± 4.88	high selectivity	concentration-dependent inhibition			CC1=C(C(=O)OCCN(Cc2ccccc2)c2ccccc2)C(c2cccc([N+](=O)[O-])c2)C(P2(=O)OCC(C)(C)CO2)=C(C)N1 (centres unmarked) [Efonidipine R-form, 1,4-dihydro-2,6-dimethyl-5-(5,5-dimethyl-2-oxo-1,3,2-dioxaphosphorinan-2-yl)-4-(3-nitrophenyl)-3-pyridine carboxylic acid 2-[benzyl (phenyl)amino]ethylester]	2.2 ± 3.4	did not show any inhibition	
		7.7			42.9 ± 8.4	75.6 ± 7.1	CC1=C(C(=O)OCCN(Cc2ccccc2)c2ccccc2)C(c2cccc([N+](=O)[O-])c2)C(P2(=O)OCC(C)(C)CO2)=C(C)N1 (centres unmarked) [Efonidipine S-form, 1,4-dihydro-2,6-dimethyl-5-(5,5-dimethyl-2-oxo-1,3,2-dioxaphosphorinan-2-yl)-4-(3-nitrophenyl)-3-pyridine carboxylic acid 2-[benzyl (phenyl)amino]ethylester, reference compound]			55.6±7.1
